Active and inactive are the calls of the source. No cut-off for these calls is given here.

Test [1] has as its target T1, Glucagon-like peptide 1 receptor (Homo sapiens, UniProt P43220). Briefly: Agonist activity human GLP-1R stably expressed in HEK293 cells assessed as increase in intracellular cAMP level incubated for 30 mins by multiplate reader analysis. The format is functional, cell-based. Background: Changes in cAMP serve as a functional read-out for many G protein-coupled receptors.

The subject of test [2] is Mus musculus. Put plainly: Antidiabetic activity in hGLP1R-knock in mouse model assessed as reduction in blood glucose level at 3 mg/kg, ip pretreated with compound for 15 mins followed glucose addition and measured after 30 to 120 mins by OGTT analysis. The format is functional, organism-based. As to conditions: time 45-135 min.
The next test concerns Pancreatic islet. Briefly: Induction of insulin secretion in mouse Pancreatic islet cells expressing hGLP1R at 10 nM measured for 2 hrs by HTRF analysis. It counts as functional, cell-based. In general terms: Time-resolved FRET reads energy transfer from a long-lived donor to a nearby acceptor.
Test [3] deals with Mus musculus. Put plainly: Antidiabetic activity in hGLP1R-knock in mouse model assessed as reduction in blood glucose level at 3 mg/kg, ip pretreated with compound for 15 mins followed glucose addition and measured after 120 mins by OGTT analysis. The format is functional, organism-based. As to conditions: time 135.0 min.
The target in test [4] is T1, Glucagon-like peptide 1 receptor. Put plainly: Agonist activity at GLP-1R (unknown origin) transfected in HEK293 cells assessed as beta-arrestin1 recruitment incubated for 5 mins by Envision multiplate reader analysis. The format is functional, cell-based.
Test [5] has as its target T2, Glucagon-like peptide 2 receptor (Homo sapiens) (UniProt O95838).
T2 sequence (whole entry): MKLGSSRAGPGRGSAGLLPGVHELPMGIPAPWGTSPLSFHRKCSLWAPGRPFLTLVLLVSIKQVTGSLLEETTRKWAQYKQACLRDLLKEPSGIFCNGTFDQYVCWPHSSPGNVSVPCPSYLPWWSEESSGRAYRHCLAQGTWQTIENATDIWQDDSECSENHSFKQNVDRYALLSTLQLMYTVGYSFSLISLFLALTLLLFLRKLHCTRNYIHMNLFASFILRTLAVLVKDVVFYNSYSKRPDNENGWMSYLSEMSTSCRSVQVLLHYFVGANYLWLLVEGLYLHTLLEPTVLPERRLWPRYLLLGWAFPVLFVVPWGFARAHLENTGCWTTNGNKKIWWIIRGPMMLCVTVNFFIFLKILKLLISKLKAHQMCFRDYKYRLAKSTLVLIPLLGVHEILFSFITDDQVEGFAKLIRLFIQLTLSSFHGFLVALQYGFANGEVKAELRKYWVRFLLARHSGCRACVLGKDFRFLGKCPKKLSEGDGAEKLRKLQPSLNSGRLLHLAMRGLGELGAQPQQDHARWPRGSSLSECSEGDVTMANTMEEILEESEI
Put plainly: Agonist activity human GLP-2R stably expressed in HEK293 cells assessed as […] in intracellular cAMP level up to 100 uM incubated for 30 mins by multiplate reader analysis. It counts as functional, cell-based.

The subject of test [6] is Mus musculus. Briefly: Antidiabetic activity in hGLP1R-knock in mouse model assessed as reduction in blood glucose AUC (0 to 120 mins) at 3 mg/kg, ip pretreated with compound for 15 mins followed glucose addition and measured after 120 mins by OGTT analysis. It counts as functional. On the set-up: scale not given: the % may be the effect or the level left. As to conditions: time 135 min, 2.25 h.

Test [7] deals with T3, Gastric inhibitory polypeptide receptor (Homo sapiens) (UniProt P48546).
T3 sequence (whole entry): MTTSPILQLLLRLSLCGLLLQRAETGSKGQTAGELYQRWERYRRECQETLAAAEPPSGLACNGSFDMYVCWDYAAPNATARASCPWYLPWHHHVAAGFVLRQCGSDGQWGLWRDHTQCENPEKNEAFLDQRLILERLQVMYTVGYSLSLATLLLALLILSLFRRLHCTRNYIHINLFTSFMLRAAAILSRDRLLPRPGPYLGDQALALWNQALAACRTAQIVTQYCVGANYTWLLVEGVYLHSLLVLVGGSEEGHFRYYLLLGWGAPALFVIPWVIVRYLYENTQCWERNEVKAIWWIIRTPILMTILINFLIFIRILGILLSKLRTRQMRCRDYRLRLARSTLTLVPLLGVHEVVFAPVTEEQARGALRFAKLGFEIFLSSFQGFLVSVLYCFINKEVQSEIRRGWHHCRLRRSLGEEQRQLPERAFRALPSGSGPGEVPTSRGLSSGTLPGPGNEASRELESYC
Briefly: Agonist activity human GIPR stably expressed in HEK293 cells assessed as […] in intracellular cAMP level up to 100 uM incubated for 30 mins by multiplate reader analysis. The format is functional, cell-based.

Test [8] deals with T1, Glucagon-like peptide 1 receptor. Put plainly: Agonist activity at GLP-1R (unknown origin) transfected in HEK293 cells assessed as beta-arrestin2 recruitment incubated for 5 mins by Envision multiplate reader analysis. The format is functional, cell-based. A general note: Recruitment of arrestin is a read-out of receptor activation apart from second messengers.
In test [9] the target is Glucagon receptor (Homo sapiens) (UniProt P47871). Briefly: Agonist activity human GCGR stably expressed in HEK293 cells assessed as […] in intracellular cAMP level up to 100 uM incubated for 30 mins by multiplate reader analysis. The format is functional, cell-based.
Sequence of Glucagon receptor (Homo sapiens) (P47871 whole entry): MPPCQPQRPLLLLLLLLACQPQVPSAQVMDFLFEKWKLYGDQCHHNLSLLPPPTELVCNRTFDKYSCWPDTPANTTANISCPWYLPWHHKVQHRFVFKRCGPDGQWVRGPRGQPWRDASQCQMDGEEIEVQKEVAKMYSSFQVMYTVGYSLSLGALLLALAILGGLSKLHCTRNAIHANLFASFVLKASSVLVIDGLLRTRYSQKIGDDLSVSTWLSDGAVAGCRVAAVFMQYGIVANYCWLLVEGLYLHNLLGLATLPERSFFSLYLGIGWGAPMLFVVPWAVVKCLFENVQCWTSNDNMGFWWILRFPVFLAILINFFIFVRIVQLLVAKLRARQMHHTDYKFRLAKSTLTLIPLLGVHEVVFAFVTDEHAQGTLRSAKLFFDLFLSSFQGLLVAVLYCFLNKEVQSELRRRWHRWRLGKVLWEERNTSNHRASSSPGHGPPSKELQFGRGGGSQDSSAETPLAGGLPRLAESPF

T1 sequence (P43220 whole entry): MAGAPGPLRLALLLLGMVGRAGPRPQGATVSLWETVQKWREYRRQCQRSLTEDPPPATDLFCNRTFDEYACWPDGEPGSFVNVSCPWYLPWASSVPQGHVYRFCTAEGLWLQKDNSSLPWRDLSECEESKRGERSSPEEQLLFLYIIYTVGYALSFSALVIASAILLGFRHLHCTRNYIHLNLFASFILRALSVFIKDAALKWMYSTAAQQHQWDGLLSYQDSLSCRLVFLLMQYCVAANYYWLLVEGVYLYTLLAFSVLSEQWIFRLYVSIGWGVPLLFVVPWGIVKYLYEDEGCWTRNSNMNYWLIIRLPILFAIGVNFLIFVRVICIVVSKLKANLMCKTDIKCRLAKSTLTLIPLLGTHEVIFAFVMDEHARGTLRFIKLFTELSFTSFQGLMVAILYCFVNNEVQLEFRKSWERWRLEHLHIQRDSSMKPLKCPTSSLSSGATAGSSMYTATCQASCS

On to `CCc1nnc(-c2ccc3c(c2)nc(CN2CCC(c4cccc(OCc5ccc(Cl)cc5F)n4)CC2)n3C[C@@H]2CCO2)[nH]1`, for which the EC50 – broadly, the midpoint of the concentration-response curve – in [1] amounted to 0.75 nM. The same measure, in the same setting: as for `NC(=O)CCSc1nnc(-c2ccc3c(c2)nc(CN2CCC(c4cccc(OCc5ccc(Cl)cc5F)n4)CC2)n3C[C@@H]2CCO2)[nH]1`, the figure is 0.59 nM; as for `O=C(O)CSc1nnc(-c2ccc3c(c2)nc(CN2CCC(c4cccc(OCc5ccc(Cl)cc5F)n4)CC2)n3C[C@@H]2CCO2)[nH]1`, 1 nM. On the same count and under the same terms, with `N=C(CSc1nnc(-c2ccc3c(c2)nc(CN2CCC(c4cccc(OCc5ccc(Cl)cc5F)n4)CC2)n3C[C@@H]2CCO2)[nH]1)NO` the figure was 0.52 nM; with `CC(C)Sc1nnc(-c2ccc3c(c2)nc(CN2CCC(c4cccc(OCc5ccc(Cl)cc5F)n4)CC2)n3C[C@@H]2CCO2)[nH]1`, 5.2 nM; with `CSc1nnc(-c2ccc3c(c2)nc(CN2CCC(c4cccc(OCc5ccc(Cl)cc5F)n4)CC2)n3C[C@@H]2CCO2)[nH]1`, 0.67 nM. Take `COCCSc1nnc(-c2ccc3c(c2)nc(CN2CCC(c4cccc(OCc5ccc(Cl)cc5F)n4)CC2)n3C[C@@H]2CCO2)[nH]1`: the EC50 in test [1] was found to be 3.4 nM.

On to `NCCSc1nnc(-c2ccc3c(c2)nc(CN2CCC(c4cccc(OCc5ccc(Cl)cc5F)n4)CC2)n3C[C@@H]2CCO2)[nH]1`, for which the concentration for a half-maximal effect (EC50) in test [1] turned out to be 0.42 nM. For the molecule `N#Cc1ccc(COc2cccc(C3CCN(Cc4nc5ccc(C(=O)O)cc5n4C[C@@H]4CCO4)CC3)n2)c(F)c1`, the outcome in the test on Mus musculus [2], in the test with Pancreatic islet and in the test on Mus musculus [3] was Active.

Regarding `O=C1NCC(CSc2nnc(-c3ccc4c(c3)nc(CN3CCC(c5cccc(OCc6ccc(Cl)cc6F)n5)CC3)n4C[C@@H]3CCO3)[nH]2)O1` (stereo partly drawn), the EC50 in test [1] came out at 0.38 nM. `COc1nnc(-c2ccc3c(c2)nc(CN2CCC(c4cccc(OCc5ccc(Cl)cc5F)n4)CC2)n3C[C@@H]2CCO2)[nH]1`: the EC50 in [1] stood at 0.88 nM. On to `OCCCSc1nnc(-c2ccc3c(c2)nc(CN2CCC(c4cccc(OCc5ccc(Cl)cc5F)n4)CC2)n3C[C@@H]2CCO2)[nH]1`, for which the EC50 in [1] was 0.48 nM. In the case of `NC(=O)CSc1nnc(-c2ccc3c(c2)nc(CN2CCC(c4cccc(OCc5ccc(Cl)cc5F)n4)CC2)n3C[C@@H]2CCO2)[nH]1`, the EC50 in [1] is 0.35 nM. For `CCSc1nnc(-c2ccc3c(c2)nc(CN2CCC(c4cccc(OCc5ccc(Cl)cc5F)n4)CC2)n3C[C@@H]2CCO2)[nH]1`, the EC50 in test [1] stood at 1.1 nM. `Fc1cc(Cl)ccc1COc1cccc(C2CCN(Cc3nc4cc(-c5nnc(SCC6CC6)[nH]5)ccc4n3C[C@@H]3CCO3)CC2)n1`: the EC50 in test [1] turned out to be 50 nM. For `OCCSc1nnc(-c2ccc3c(c2)nc(CN2CCC(c4cccc(OCc5ccc(Cl)cc5F)n4)CC2)n3C[C@@H]2CCO2)[nH]1`, the result in the test on Mus musculus [2], in the test on Pancreatic islet and in the test with Mus musculus [3] was Active. In addition, the EC50 was determined as 936 nM in test [4], 0.065 nM in [1] and 581 nM in test [8]. The outcome in test [5], in test [7] and in test [9] was inactive. Further, the Activity in the test on Mus musculus [6] is given as 50%.

Take `CC(C)CSc1nnc(-c2ccc3c(c2)nc(CN2CCC(c4cccc(OCc5ccc(Cl)cc5F)n4)CC2)n3C[C@@H]2CCO2)[nH]1`: the EC50 in test [1] amounted to 22 nM. `NC(=O)NCCSc1nnc(-c2ccc3c(c2)nc(CN2CCC(c4cccc(OCc5ccc(Cl)cc5F)n4)CC2)n3C[C@@H]2CCO2)[nH]1`: the concentration for a half-maximal effect (EC50) in [4] was determined as 364 nM; in test [1], 0.11 nM; in test [8], 349 nM. On to `N=C(N)CSc1nnc(-c2ccc3c(c2)nc(CN2CCC(c4cccc(OCc5ccc(Cl)cc5F)n4)CC2)n3C[C@@H]2CCO2)[nH]1`, for which the EC50 in test [1] was found to be 2.8 nM. `N#CCSc1nnc(-c2ccc3c(c2)nc(CN2CCC(c4cccc(OCc5ccc(Cl)cc5F)n4)CC2)n3C[C@@H]2CCO2)[nH]1`: in test [1], the EC50 is 0.67 nM. Regarding `Fc1cc(Cl)ccc1COc1cccc(C2CCN(Cc3nc4cc(-c5nnc(C(F)(F)F)[nH]5)ccc4n3C[C@@H]3CCO3)CC2)n1`, the EC50 in [1] turned out to be 0.46 nM. With `Fc1cc(Cl)ccc1COc1cccc(C2CCN(Cc3nc4cc(-c5nnc(SCc6ncc[nH]6)[nH]5)ccc4n3C[C@@H]3CCO3)CC2)n1`, the EC50 in [1] came to 2.5 nM. Same read-out and setting: as for `OCCCCSc1nnc(-c2ccc3c(c2)nc(CN2CCC(c4cccc(OCc5ccc(Cl)cc5F)n4)CC2)n3C[C@@H]2CCO2)[nH]1`, the figure is 4 nM; as for `CSc1nnc(-c2ccc3c(c2)nc(CN2CCC(c4cccc(OCc5ccc(Cl)cc5F)n4)CC2)n3C[C@@H]2CCO2)n1C`, 8.5 nM; as for `CN(C)c1nnc(-c2ccc3c(c2)nc(CN2CCC(c4cccc(OCc5ccc(Cl)cc5F)n4)CC2)n3C[C@@H]2CCO2)[nH]1`, 6.8 nM. Take `NC(=O)CCCCSc1nnc(-c2ccc3c(c2)nc(CN2CCC(c4cccc(OCc5ccc(Cl)cc5F)n4)CC2)n3C[C@@H]2CCO2)[nH]1`: the EC50 in [1] came to 0.62 nM. Regarding `CC(=O)CSc1nnc(-c2ccc3c(c2)nc(CN2CCC(c4cccc(OCc5ccc(Cl)cc5F)n4)CC2)n3C[C@@H]2CCO2)[nH]1`, the EC50 in test [1] turned out to be 0.66 nM.

On to `NC(=O)CCCSc1nnc(-c2ccc3c(c2)nc(CN2CCC(c4cccc(OCc5ccc(Cl)cc5F)n4)CC2)n3C[C@@H]2CCO2)[nH]1`, for which the values for the EC50 in test [4], in test [1] and in test [8] were 566 nM, 0.1 nM and 322 nM, respectively.
